98 compounds from the CATMoS acute toxicity set (Mansouri et al. 2021) can be followed below.

Molecules are shown by their SMILES.

This data set in a line: GHS categories as the set defines them, by LD50: 1 up to 5, 2 up to 50, 3 up to 300, 4 up to 2000, 5 above 2000 mg/kg. Particulars: rat; in vivo; po.

In turn, `CN1CC(c2ccno2)CC2c3cccc4[nH]cc(c34)CC21` (stereo not drawn) had a GHS category of 4.
Next, `O=C(O)c1cc(Nc2ccccc2)c(C(=O)O)cc1Nc1ccccc1`: 5.
`CCC(=O)O[C@]1(C(=O)CCl)[C@@H](C)C[C@H]2[C@@H]3CCC4=CC(=O)C=C[C@]4(C)[C@@]3(F)[C@@H](O)C[C@@]21C` gave a GHS category of 5.
The compound `O=C(NC(=O)c1ccccc1Cl)Nc1ccc(OC(F)(F)F)cc1` had a GHS category of 5.
The figure for `Cc1ncc(CSSCc2cnc(C)c(O)c2CO)c(CO)c1O` is 5; for `CCN(C(=O)CCCCSc1nnnn1C)C1CCCCC1` it is 4; for `COc1ccccc1N=NC(C(C)=O)C(=O)Nc1ccc2[nH]c(=O)[nH]c2c1` (stereo not drawn) it is 5.
The figure for `CC(C)(C)c1ccc(O)c(C(C)(C)C)c1` is 5.
The figure for `CC=CC=CCOC(=O)CCC` is 5; for `OC1CCC2CCCCC2C1` (stereo not drawn) it is 5.
`CC/C=C/C=C\CCCCCCCCOC(C)=O` returned a GHS category of 4.
The compound `Cc1ccc(OC(=O)c2ccccc2OC(N)=O)cc1` registered a GHS category of 5.
In the case of `CC=CC(=O)OCCCCCC`, the GHS category worked out at 5.
As for `Cc1cc(O)c2c(O)c(-c3ccc4cc(C)cc(O)c4c3O)ccc2c1`, the GHS category was 5.
`Brc1nc[nH]c1Br` yielded a GHS category of 4.
Next, `COc1ccccc1NC(=O)c1cc2ccccc2c(N=Nc2ccc(C(N)=O)cc2)c1O`: 5; `CN[C@H](CC(C)C)C(=O)N[C@H]1C(=O)N[C@@H](CC(N)=O)C(=O)N[C@H]2C(=O)N[C@H]3C(=O)N[C@H](C(=O)N[C@@H](C(=O)O)c4cc(O)cc(O)c4-c4cc3ccc4O)[C@H](O)c3ccc(c(Cl)c3)Oc3cc2cc(c3O[C@@H]2O[C@H](CO)[C@@H](O)[C@H](O)[C@H]2O[C@H]2C[C@](C)(N)C(O)[C@H](C)O2)Oc2ccc(cc2Cl)[C@H]1O` (stereo partly drawn): 5; `C=C(C)CCCC(C)CCOC(=O)CC` (stereo not drawn): 5.
Take `CCCC(=O)C(C)=O`: the GHS category was determined as 5.
The compound `CCCCCCCCO` registered a GHS category of 5.
`O=C1NC(=O)c2ccccc21` displayed a GHS category of 5.
Next, `CCCCCOC=O`: 5; `CCCCC(CC)COC(=O)C(C#N)=C(c1ccccc1)c1ccccc1` (stereo not drawn): 5.
The figure for `Cc1cc2cccnc2n(-c2cccc(C(F)(F)F)c2)c1=O` is 3; for `C=C(C)C(CC=C(C)C)COC(=O)C=C(C)C` (stereo not drawn) it is 5.
The compound `Cc1cccc2c1NC(=O)C2(c1ccc(OS(=O)(=O)O)cc1)c1ccc(OS(=O)(=O)O)cc1` showed a GHS category of 5.
The figure for `C=C(C)C(=O)OCCCCCCCCCCCC` is 5.
The figure for `CCOC(C)(C)C` is 5; for `CNC(=O)C(=NNc1ccc([N+](=O)[O-])cc1)C(C)=O` it is 5; for `CNC(=O)Oc1cc(C)cc(C)c1C` it is 3.
As to `CC(C)CCCCCCCCCCCCCCCOC(=O)CCCCCCCCCCCCCCC(C)C`, the GHS category is reported as 5.
The figure for `CO[Si](C)(C)CCl` is 4.
The figure for `COc1ccc2cccc(CC#N)c2c1` is 5; for `CC(C)(C)c1ccc(N(CCN2CCCCC2)c2cccc(Cl)c2)cc1` it is 5; for `Nc1ccc(S(=O)(=O)Nc2ncccn2)cc1` it is 5.
Next, `CCOC(=O)c1cnn(C)c1S(=O)(=O)NC(=O)Nc1nc(OC)cc(OC)n1`: 5; `OCCOc1nn(-c2cccc(C(F)(F)F)c2)c2ncccc12`: 4.
Regarding `COc1ccc(N(CCCC(=O)O)C(=O)c2ccc(Cl)cc2)cc1`, the GHS category was determined as 5.
Next, `CCOc1c(N)c2c(c(OCC)c1OCC)C(C1c3c(cc4c(c3OC)OCO4)CCN1C)OC2=O` (stereo not drawn): 5.
Next, `CN1C(=O)C(C)(C)Oc2cc(C(=O)C=Cc3ccc(O)cc3)ccc21`: 5; `OC(c1ccccc1)c1cccnc1Cl` (stereo not drawn): 5.
The figure for `CC(=O)NCCCOc1ccc(C(=O)N2CCC(N3C(=O)CCc4ccccc43)CC2)cc1` is 5.
Compound `CN(C(=O)COc1nc2ccccc2s1)c1ccccc1` displayed a GHS category of 5.
Next, `CC1C(C)(C)C2=C(C3OCOCC3CC2)C1(C)C` (stereo not drawn): 5; `CCCCCCC(C)O` (stereo not drawn): 5; `CCCN(C=Nc1cccc(=O)[nH]1)CCC`: 5.
For `CC(=O)Oc1ccc(C(c2ccc(OS(=O)(=O)O)cc2)c2ccccn2)cc1` (stereo not drawn), the GHS category stood at 5.
Next, `O=C1NC(=O)C(=c2[nH]c(=C3C(=O)NC(=O)NC3=O)c3ccccc23)C(=O)N1`: 5; `CCCCCCCCCCCCCCCCCCOCCC[N+](C)(C)C`: 4; `C=CCCCCCCCC(=O)OC`: 5.
The figure for `CCCNC(=O)Cc1cnc2cccc(C)n2c1=O` is 3.
Next, `CNC(=O)C(=NNc1ccc(Cl)cc1)C(C)=O`: 5; `COc1cc(/N=N/c2c(Br)cc([N+](=O)[O-])cc2[N+](=O)[O-])c(NC(C)=O)cc1N(CCOC(C)=O)CCOC(C)=O`: 5.
For the compound `COc1ccc(C(=O)CC(=O)c2ccc(C(C)(C)C)cc2)cc1`, the GHS category was 5.
In turn, `CC(C)=CCN(CC=C(C)C)CCC(C#N)(c1cccc2ccccc12)C(C)C` (stereo not drawn) had a GHS category of 4.
The figure for `Nc1ccc(N=Nc2ccc(N=Nc3c(S(=O)(=O)O)cc4cc(S(=O)(=O)O)c(N=Nc5ccc(N=Nc6ccc(N)cc6N)cc5)c(O)c4c3N)cc2)c(N)c1` is 5; for `c1ccc2oc(-c3ccc(-c4nc5ccccc5o4)s3)nc2c1` it is 5; for `CNc1ccc([N+](=O)[O-])cc1` it is 5.
On to `CCCCCCC#CC(OC)OC`, for which the GHS category was 5.
The figure for `COc1ccc2c(c1)CCN(c1ccccc1)C2c1ccc(OCCN2CCCCC2)cc1` (stereo not drawn) is 4; for `CCCCCC(=Cc1ccccc1)C(OC)OC` it is 5.
The figure for `CCCCCCCCCCCCCCC(C)c1cc(C)cc(C)c1O` (stereo not drawn) is 5.
Next, `CCOC(=O)COc1nn(-c2cccc(C(F)(F)F)c2)c2ncccc12`: 4; `CCC(=NOC/C=C/Cl)C1=C(O)CC(C2CCOCC2)CC1=O` (stereo not drawn): 5; `CC(CC=O)c1ccccc1` (stereo not drawn): 5.
`CCCCCCCOCC(C)CC=O` (stereo not drawn) showed a GHS category of 5.
The figure for `CCSP(=O)(SCC)SCC` is 3; for `CC1CCN(c2nc3cc(Cl)ccc3o2)CCN1` (stereo not drawn) it is 4.
The figure for `CSC(C)=NOC(=O)N(C)SN(C(C)(C)C)P1(=S)OCC(C)(C)CO1` is 5; for `CCCCCCCCCCCCCCCc1cccc(OC(=O)c2ccccc2OC(N)=O)c1` it is 5; for `CC(C)C1OCCN1CCOC(=O)NCCCCCCNC(=O)OCCN1CCOC1C(C)C` (stereo not drawn) it is 5.
The figure for `CC(=O)[C@H]1CC[C@H]2[C@@H]3C=CC4=CC(=O)CC[C@@]4(C)[C@@H]3CC[C@]12C` is 5.
The compound `C[C@]12C[C@@H](O)[C@H]3[C@@H](CCC4=CC(=O)CC[C@@H]43)[C@@H]1CCC2=O` registered a GHS category of 4.
The figure for `CCC1COC(Cn2cncn2)(c2cc3cc(Cl)cc(Cl)c3o2)O1` (stereo not drawn) is 4; for `C=CC(C)(CCC=C(C)C)OC(=O)Cc1ccccc1` (stereo not drawn) it is 5.
In the case of `Cc1nn(C)c(O)c1C(=O)c1ccc(C(F)(F)F)cc1S(C)(=O)=O`, the GHS category was 5.
Next, `NC(=O)c1ccc(NC(=O)c2ccc(N)cc2)cc1`: 5; `NS(=O)(=O)c1cc2c(cc1Cl)NC(Cc1ccccc1)NS2(=O)=O` (stereo not drawn): 5; `CCCCC(=O)N(Cc1ccc(-c2ccccc2-c2nn[nH]n2)cc1)[C@H](C(=O)OCc1ccccc1)C(C)C`: 4.
The figure for `C=CC(C)(O)CC/C=C(\C)CC/C=C(\C)CCC=C(C)C` (stereo not drawn) is 5; for `CCOC(=O)C(=O)Nc1nc(-c2ccccc2)cs1` it is 5; for `CC(=O)Nc1ccc(C(C[N+](=O)[O-])Sc2ccc(C)cc2)cc1` (stereo not drawn) it is 5.
In turn, `CC[n+]1c(C=Cc2ccc(N3CCCC3)cc2)cccc1C=Cc1ccc(N2CCCC2)cc1` gave a GHS category of 5.
Next, `O=C[C@H](O[C@@H](C=O)[C@@H](O)[C@H](O)[C@H](O)CO)[C@@H](O)[C@H](O)[C@H](O)CO`: 5; `B12B3B4B1C234`: 5.
The figure for `Cc1cccc2ncc(C(=O)NC(C)(C)C)c(=O)n12` is 3; for `Nc1ccc(NCCO)c([N+](=O)[O-])c1` it is 4.
The figure for `C[C@]1(Cn2ccnn2)[C@H](C(=O)O)N2C(=O)C[C@H]2S1(=O)=O` is 5; for `COC(=O)c1c(C)nc(C)c(C(=O)O)c1-c1cc([N+](=O)[O-])ccc1F` it is 5.
As for `O=C1C[N+]([O-])=C(c2ccccc2)c2cc(Cl)ccc2N1`, the GHS category is on record as 5.
The figure for `OCC1=C[C@H](N[C@H]2C[C@H](CO)[C@@H](O[C@@H]3O[C@H](CO)[C@@H](O)[C@H](O)[C@H]3O)[C@H](O)[C@H]2O)[C@H](O)[C@@H](O)[C@@H]1O` is 5; for `C/C=C(\C)C(=O)OCC/C=C\CC` it is 5.
The figure for `C/C1=C\[C@@H](C)C/C=C/[C@H]2[C@@H]3O[C@]3(C)[C@@H](C)[C@H]3[C@H](Cc4c[nH]c5ccccc45)NC(=O)[C@]32C(=O)/C=C/C(=O)[C@@H]1O` is 4; for `CCCCCCCCC=O` it is 5; for `CC(CCC(=O)O)C(=O)O` (stereo not drawn) it is 4.
In the case of `COc1ccc(N=NC(C(C)=O)C(=O)Nc2ccccc2OC)c([N+](=O)[O-])c1` (stereo not drawn), the GHS category was determined as 5.
Next, `CC(=O)[C@@]1(O)CC[C@H]2[C@@H]3C=C(Cl)C4=CC(=O)CC[C@]4(C)[C@H]3CC[C@@]21C`: 5; `CCCc1nc2ccnn2c(NCCN2CCOCC2)c1Cc1ccc(-c2ccccc2-c2nn[nH]n2)cc1`: 4.
